Legend:
[1] = system: recruited BALF cells; experiment: LPS induced lung inflammation model (in-LPS test); assay type: in vivo, mouse; settings: versus inLPS Vehicle group
Description: The aim of the assay is to assess the effect of a test compound in a mouse model of acute lung inflammation induced by intranasal instillation of LPS. The impact on the induced cells recruitment in lung is evaluated by measurement of white cells count in broncho-alveolar lavage (BAL) fluid with VetABC device (medical solution gmbh, Rothusstrasse 23, 6331 Hunenberg, Switzerland).
The animals (BALB/c J mice, 18-20 g) are obtained from Harlan Laboratories (Maison-Alfort, France). The animals are maintained on 12 hours light/dark cycle at 22° C. with ad libitum access to tap water and food. Litters are changed twice a week. For each tested compound, a group of 10 subjects is used. In addition to the test compound-treated groups, a vehicle+LPS control group (inLPS), a non-treated group (intact), and a positive control dexamethasone treated group (DEX) are used.
LPS is dissolved in saline solution in order to obtain a final 10 μg/50 μL solution for intranasal instillation, and administered at 50 μL/mouse by intranasal instillation.
The test compounds are prepared in 15 mL PEG200 (9 mL)/H2O (6 mL) to be dosed in a range of 0.3, 1, 3, 10, and 30 mg/kg, and then kept at room temperature in the dark, and are administered once (qd) or twice daily (bid) over 2 days.
Dexamethasone (10 mg/kg, bid, po) is used as a positive control.
On day 1, mice are anaesthetized by isoflurane inhalation. During breathing, LPS solution is instilled intra-nasally and mice are monitored until complete recovery from anaesthesia.
On day 2, mice are anaesthetized by intra-peritoneal injection (under a volume of 10 mL/kg) of anaesthetic solution (18 mL NaCl 0.9%+0.5 mL xylazine (5 mg/kg)+1.5 mL ketamine (75 mg/kg)).
The trachea is canulated with a catheter, and BAL is performed by 2×0.75 mL sterile PBS. The BAL fluid removed is shaked gently at room temperature before centrifugation at 1500 r.p.m. during 10 min at 4° C.
The supernatant is removed and the cell pellet is suspended in 200 μL of PBS, kept on ice and total cell count is processed with VetABC device. Finally, mice are sacrificed under anaesthesia.
For each readout, mean and sem are calculated. A difference statistically significant between intact or treated groups and inLPS Vehicle group is evaluated with Prism® software using a one-way ANOVA (for treatment groups) followed by a Student test. *: p<0.05; **: p<0.01; ***: p<0.001 versus inLPS Vehicle group.

[2] = target: T1, hENPP2 (UniProtKB/SwissProt Sequence ref Q13822) (Homo sapiens (Human), UniProt Q13822); experiment: LPC hENPP2 assay (choline release, LPC as substrate); assay type: biochemical
How it was run: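 Choline released from LPC by ENPP2 is quantified after stopping with stop-developer containing 0.6 U/mL choline oxidase, 0.6 U/mL peroxidase, 1.8 mM TOOS, 1.2 mM amino-antipyrine and 20 mM EGTA. Quinoneimine dye read at 555 nm after 30 min at room temperature.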

[3] = system: LPA 18:2; experiment: Rat whole blood (plasma) LPA assay; assay type: biochemical
Description: Whole blood is collected from rats or mouse by exsanguinations on sodium heparin tube, then after centrifugation at 3000 rpm for 15 min at 4° C., plasma is stored at −80° C. Compounds are diluted in DMSO in concentration dependent manner then 0.5 μL are dispensed into 96-wells plate placed in ice. Plasma is defrosted on ice then 49.5 μL of plasma are added into the well containing 0.5 μL of compound (1% DMSO final). Plates are covered with a lid in polypropylene and incubated at +37° C., 5% CO2, for 2 h under gentle shaking (except controls which are stored at −20° C.).
At the end of the incubation, controls are defrosted in ice and transferred in the incubated plates for LC-MS/MS analysis with a non GLP-validated method. For the analysis, plasma proteins from a 10 μL incubated plates are precipitated with an excess of methanol containing the internal standard, LPA 17:0. After centrifugation, the corresponding supernatant is injected on a C18 column. Analytes are eluted out of the column under isocratic conditions. An API5500 QTRAP mass spectrometer (ABSciex™) is used for the detection of LPA 18:2. No calibration curve is prepared for LPA 18:2, however relative quantities are evaluated based on the peak area.

[4] = target: T1, hENPP2; experiment: FS3 hENPP2 assay (fluorogenic substrate FS-3); assay type: biochemical; settings: hENPP2, FS-3 as substrate
How it was run: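 Compound dilutions (1/5 steps, top concentration as added 20 μM) were preincubated 30 min at room temperature with hENPP2 (0.4 or 0.64 μg/mL final) in pH 8.0 Tris buffer containing NaCl, KCl, MgCl2, CaCl2 and 0.1% fatty-acid-free BSA. FS-3 (0.75 μM as added) was then hydrolysed for 30 min at 30 °C, and fluorescence was read at 485/520 nm.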

IC50 [2] [nM]	IC50 [3] [nM]	IC50 [4] [nM]	SMILES	Effect significance on recruited BALF cells ([1]; 3 mg/kg bid po)	Effect significance on recruited BALF cells ([1]; 30 mg/kg bid po)	Effect significance on recruited BALF cells ([1]; 10 mg/kg bid po)
100 to 500	100 to 500	0.01 to 25	CCc1nc2ccc(N3CCN(CC(=O)N(C)C)CC3)nn2c1N(C)c1nc(-c2ccc(F)cc2)cs1 [Cpd 42, 2-(4-(2-ethyl-3-((4-(4-fluorophenyl)thiazol-2-yl)(methyl)amino)imidazo[1,2-b]pyridazin-6-yl)piperazin-1-yl)-N,N-dimethylacetamide]	*** (***: p<0.001)	*** (***: p<0.001)	
100 to 500		0.01 to 25	CCc1nc2ccc(N3CCN(CC(=O)N4CC[C@@H](O)C4)CC3)nn2c1N(C)c1nc(-c2ccc(F)cc2)cs1 [Cpd 33, (R)-2-(4-(2-ethyl-3-((4-(4-fluorophenyl)thiazol-2-yl)(methyl)amino)imidazo[1,2-b]pyridazin-6-yl)piperazin-1-yl)-1-(3-hydroxypyrrolidin-l-yl)ethanone]			** (**: p<0.01)
100 to 500		0.01 to 25	CCc1nc2ccc(C3CCN(CC(=O)N4CC(O)C4)CC3)nn2c1N(C)c1nc(-c2ccc(F)cc2)cs1 [Cpd 201, 2-(4-(2-ethyl-3-((4-(4-fluorophenyl)thiazol-2-yl)(methyl)amino)imidazo[1,2-b]pyridazin-6-yl)piperidin-1-yl)-1-(3-hydroxyazetidin-1-yl)ethanone]			** (**: p<0.01)
500 to 1000	> 1000	0.01 to 25	CCc1nc2ccc(C3CCN(CC(=O)N4CC(O)C4)CC3)nn2c1N(C)c1ccnc(-c2ccc(F)cc2)n1 [Cpd 216, 2-(4-(2-ethyl-3-((2-(4-fluorophenyl)pyrimidin-4-yl)(methyl)amino)imidazo[1,2-b]pyridazin-6-yl)piperidin-1-yl)-1-(3-hydroxyazetidin-1-yl)ethanone]			
> 1000	> 1000	50 to 100	CCc1nc2cnc(N3CCN(CC(=O)N4CC(O)C4)CC3)cn2c1N(C)c1nc(-c2ccc(F)cc2C#N)cs1 [Cpd 16, 2-(2-((2-ethyl-6-(4-(2-(3-hydroxyazetidin-1-yl)-2-oxoethyl)piperazin-1-yl)imidazo[1,2-a]pyrazin-3-yl)(methyl)amino)thiazol-4-yl)-5-fluorobenzonitrile]			
0.01 to 100	0.01 to 100	0.01 to 25	CCc1nc2ccc(N3CCN(S(=O)(=O)CCCN(C)C)[C@H](CO)C3)nn2c1N(C)c1nc(-c2ccc(F)cc2)cs1 [Cpd 63, (S)-(1-(3-(dimethylamino)propylsulfonyl)-4-(2-ethyl-3-((4-(4-fluorophenyl)thiazol-2-yl)(methyl)amino)imidazo[1,2-b]pyridazin-6-yl)piperazin-2-yl)methanol]			

Second part, the compound before the results:

SMILES	IC50 [2] [nM]	IC50 [3] [nM]	IC50 [4] [nM]	Effect significance on recruited BALF cells ([1]; 3 mg/kg bid po)	Effect significance on recruited BALF cells ([1]; 30 mg/kg bid po)	Effect significance on recruited BALF cells ([1]; 10 mg/kg bid po)
CCc1nc2ccc(N3CCN(CC(=O)N4CC[C@H](O)C4)CC3)nn2c1N(C)c1nc(-c2ccc(F)cc2)cs1 [Compound 34, (S)-2-(4-(2-ethyl-3-((4-(4-fluorophenyl)thiazol-2-yl)(methyl)amino)imidazo[1,2-b]pyridazin-6-yl)piperazin-1-yl)-1-(3-hydroxypyrrolidin-1-yl)ethanone]	100 to 500		0.01 to 25			* (*: p<0.05)
CCc1nc2ccc(N3CCN(CC(=O)N(C)C)CC3)nn2c1N(C)c1nc(-c2ccc(F)cc2)c(C#N)s1 [Compound 44, 2-(4-(3-((5-cyano-4-(4-fluorophenyl)thiazol-2-yl)(methyl)amino)-2-ethylimidazo[1,2-b]pyridazin-6-yl)piperazin-1-yl)-N,N-dimethylacetamide]	0.01 to 100			** (**: p<0.01)		
CCc1nc2cnc(N3CCN(CC(=O)N4CC[C@H](O)C4)CC3)cn2c1N(C)c1nc(-c2ccc(F)cc2)c(C#N)s1 [Cpd 7, (S)-2-((2-ethyl-6-(4-(2-(3-hydroxypyrrolidin-1-yl)-2-oxoethyl)piperazin-1-yl)imidazo[1,2-a]pyrazin-3-yl)(methyl)amino)-4-(4-fluorophenyl) thiazole-5-carbonitrile]	100 to 500	100 to 500	0.01 to 25			
CCc1nc2cnc(N3CCN(CC(=O)N(C)C)CC3)cn2c1N(C)c1nc(-c2ccc(F)cc2)c(C#N)s1 [Cpd 5, 2-(4-(3-((5-cyano-4-(4-fluorophenyl)thiazol-2-yl)(methyl)amino)-2-ethylimidazo[1,2-a]pyrazin-6-yl)piperazin-1-yl)-N,N-dimethylacetamide]	100 to 500	> 1000	0.01 to 25			
CCc1nc2cnc(N3CCN(CC(=O)N4CC[C@@H](O)C4)CC3)cn2c1N(C)c1nc(-c2ccc(F)cc2)c(C#N)s1 [Cpd 6, (R)-2-((2-ethyl-6-(4-(2-(3-hydroxypyrrolidin-1-yl)-2-oxoethyl)piperazin-1-yl)imidazo[1,2-a]pyrazin-3-yl)(methyl)amino)-4-(4-fluorophenyl) thiazole-5-carbonitrile]	100 to 500	100 to 500	0.01 to 25			
